{"source": "paper PMC2362731", "about": "“Phase I study of Carzelesin (U-80,244) given (4-weekly) by intravenous bolus schedule” (British Journal of Cancer, 1999)", "key": {"[1]": {"assay": "Plasma pharmacokinetics of Carzelesin and metabolites by HPLC, first course", "assay_type": "in vivo, human", "protocol": "Carzelesin is a cyclopropylpyrroloindole analogue which acts as a DNA-sequence-specific alkylating agent. In this phase I study, Carzelesin was given as a 4-weekly 10 min IV infusion to 51 patients with advanced solid tumours. Patients received a median of two courses (range 1–5) at one of nine dose levels: 24, 48, 96, 130, 150, 170, 210, 250 and 300 μg m^−2. According to NCI-CTC criteria, non-haematological toxicities (grade 1/2) included fever, nausea and vomiting, mucositis and anorexia, none of which was clearly dose related. The dose-limiting toxicity was haematological and consisted mainly of neutropenia and to a lesser extent thrombocytopenia. From the dose level 150 μg m^−2, the haematological toxicity (particularly thrombocytopenia) was delayed in onset, prolonged and cumulative in some patients. In several courses, double WBC nadirs occurred. The maximum tolerated dose for a single course was 300 μg m^−2. From the dose level 170 μg m^−2, the intended dose intensity could not be delivered to most patients receiving > 2 courses owing to cumulative haematological toxicity. The dose level with the best dose intensity for multiple courses was 150 μg m^−2. The pharmacokinetics of Carzelesin and its metabolites (U-76,073; U-76,074) have been established in 31 patients during the first course of treatment using a HPLC method. […] The concentration of U-76,074 (active metabolite) extended above the lower limit of quantitation (1 ng ml^−1) for short periods of time and only at the higher dose levels. There was no relationship between neutropenia and the AUC of the prodrug Carzelesin, but the presence of detectable plasma levels of the active metabolite U-76,074 was usually associated with a substantial decrease in ANC values. © 1999 Cancer Research Campaign\nCarzelesin (U-80,244, Figure 1A) is a cyclopropylpyrroloindole (CPI) prodrug analogue of CC-1065. […] CPI drugs are a class of compounds with unique DNA interactive properties. These agents fit into the minor groove region of DNA, and the CPI function in the molecule mediates a covalent binding to the N3 position of adenine in A-T rich regions, thus forming DNA adducts in a sequence selective fashion (Hurley et al, 1984; Reynolds et al, 1985). Three new CPIs have now been developed. […] Bizelesin differs from the classical CPI drugs in that it contains two chloromethyl functions, which are both converted (via intramolecular rearrangements) to the CPI alkyl- ating species that interact with DNA. Consequently, this agent is capable of forming DNA interstrand cross-links (Lee et al, 1991). […] Therefore, efforts were directed to modu- late the alkylation rate by the preparation of CPI prodrugs that would require chemical or enzymatic conversion. The activation of Carzelesin is a two-step reaction with hydrolysis of the phenyl- urethane substituent to form the intermediate compound U-76,073, followed by ring closure to form the active product U-76,074 (Figure 1B). […] This higher efficacy may be related to the pharmacologic features of the compound. […] Phase I study of Carzelesin (U-80,244) given (4-weekly) by intravenous bolus schedule A Awada1, CJA Punt2, MJ Piccart1, O Van Tellingen3, L Van Manen2, J Kerger1, Y Groot4, J Wanders4, J Verweij5 and DJTh Wagener2 1Institut Jules Bordet, Bd de Waterloo 125, 1000 Brussels, Belgium; 2University Hospital, Geert Grooteplein 8, Box 9101, 6500 HB Nijmegen, The Netherlands; 3The Netherlands Cancer Institute (Antoni van Leeuwenhoek Huis), Plesmanlaan 121, 1066 CX Amsterdam, The Netherlands; 4European Organization for Research and Treatment of Cancer - New Drug Development Office, PO Box 7057, Amsterdam, The Netherlands; 5Rotterdam Cancer Institute, Groene Hilledijk 301, 3075 EA Rotterdam, The Netherlands; on behalf of the EORTC Early Clinical Studies Group and EORTC NDDO Summary Carzelesin is a cyclopropylpyrroloindole analogue which acts as a DNA-sequence-specific alkylating agent. […]"}, "[2]": {"system": "tumour cells cultured in vitro", "design": "method as in Li et al, 1992", "details": "compared with adozelesin; ref Li et al, 1992; cited from earlier work"}, "[3]": {"system": "mouse", "details": "equivalent of mouse LD10; ref EORTC-NDDO, 1992; cited from earlier work"}}}
{"smiles": "CCN(CC)c1ccc2cc(C(=O)Nc3ccc4[nH]c(C(=O)N5C[C@@H](CCl)c6c5cc(OC(=O)Nc5ccccc5)c5[nH]cc(C)c65)cc4c3)oc2c1", "note": "[Carzelesin]", "values": [{"measurement": "time after drug administration until plasma level dropped below 1 ng ml-1", "setting": "[1]; dose level 24", "result": "≤ 1", "unit": "h"}, {"measurement": "peak plasma concentration", "setting": "[1]; dose level 24, also reported in Van Tellingen et al, 1998", "result": "about 10 ng ml-1"}, {"measurement": "mean peak plasma level", "setting": "[1]; highest dose level 300", "result": 63, "unit": "ng/mL"}, {"measurement": "pharmacokinetic behaviour (dose vs plasma AUC)", "setting": "[1]; in vivo", "result": "linear pharmacokinetics"}, {"measurement": "potency against tumour cells cultured in vitro", "setting": "[2]", "result": "less potent than adozelesin"}, {"measurement": "MELD10", "setting": "[3]", "result": 840, "unit": "g m-2"}]}
